Entries after “also recorded” stand apart in the source; their conditions may differ. Where no end group is shown, it is not given here.
What was measured:
Assay type in all cases: cell-based
sGC = assay: cGMP levels in LNCaP cells (ELISA); conditions: 1 nM R1881 absent or present, 20 µM peptide, cGMP EIA kit, Fig. S1B
Procedure: (A) Whole-cell extracts from LNCaP cells treated with Vehicle, Peptide A-8R, or C-8R were subjected to IP using an anti-sGCα1 or anti-sGCβ1 antibody and then probed by Western blotting for sGCα1 (Upper) or sGCβ1 (Lower). Input represents amount of sGCα1 or sGCβ1 found in extracts. (B) LNCaP cells grown in the absence or presence of 1 nM R1881 were treated with Vehicle, 20 µM Peptide A-8R, 20 µM C-8R, or 8-Br-cGMP and monitored for cGMP levels using the cGMP E1A kit (Enzo Life Sciences). (C) LNCaP cells grown in the absence or presence of 8-Br-cGMP were treated with Vehicle, Peptide A-8R, or ODQ and monitored for cell density using the MTT assay. (D) LNCaP cells were treated with Vehicle or different concentrations of Peptide A-8R and C-PTIO and monitored for cell density. Bar graphs represent averages of three independent experiments plus standard deviations. Asterisks indicate statistical significance (P<0.04). (TIF) Click here for additional data file.

[1] = test system: ROS generation in LNCaP cells; assay: ROS generation (CM-H2DCFDA), LNCaP/C81 cells; conditions: Fig. 4A
Procedure: Intracellular ROS levels were evaluated using the fluorescent probe 5-(and-6)-chloromethyl-2′,7′-dichlorodihydrofluorescein diacetate (CM-H2DCFDA) (Invitrogen). After treatments with Peptide A-8R, C81 cells were loaded with 20 µM CM-H2DCFDA and incubated at 37°C for 30 min in the dark. Cells were then washed with PBS and fluorescence was measured at the excitation and emission wavelengths of 490 and 535 nm, respectively, using a multi-well fluorescence plate reader. For NAC (N-acetyl cysteine) (Sigma) rescue experiment, cells were pretreated with 1 or 5 mM NAC for 2 hours before adding Peptide A-8R.
(§1) Figure 4 Peptide A-8R kills prostate cancer cells by mediating ROS generation. (A) C81 cells were treated with Vehicle or different µMolar concentrations of Peptide A-8R and without or with 0–5 mM NAC and monitored for ROS generation after 0–30 min as measured by fluorescence intensity (FI). Bar graphs represent averages of three independent experiments plus standard deviations. Note that asterisks on bar graphs found with NAC are compared to equivalent data without NAC. (B) C81 cells were treated with Vehicle or different concentrations of Peptide A-8R, as shown, and 0–5 mM NAC, as shown, and monitored for cell number after 0–6 days of incubation as measured by MTT assay. Data points represent averages of three independent experiments plus standard deviations. Asterisks indicate statistical significance (P<0.04). (C) C81 cells were treated with Vehicle or different concentrations of Peptide A-8R, as shown, and with or without 5 mM NAC, as shown, and monitored DNA damage after 1 hr incubation as measured by Comet assay.

DNA damage in C81 cells = assay: Comet assay (DNA damage); conditions: C81, 1 hr, Fig. 4C
Procedure: C81 cells were treated with Peptide A-8R for 1 hour, following a 2-hour pretreatment with 5 mM NAC or Vehicle, and trypsinized, and mixed with Comet LM-Agarose (CometAssay, […]) and transferred to slides. Electrophoresis and Sybr-Green staining was carried out according to manufacturer’s protocol.
as §1

[2] = test system: Caspase 3/7 activity in LNCaP cells; assay: Caspase 3/7 assay, LNCaP cells; conditions: Fig. 5A; for increase in Caspase 3/7 activity: 10 µM, averages of three independent experiments, relative to first condition
Procedure: (§2) For proliferation, cells were grown in medium containing 2% FBS extracted with dextran-coated charcoal (DCC). 48 hours later, ethanol or 1 nM R1881 was added to the cells followed by peptide treatment. The MTT assay (Sigma) was used as before to determine cell number. For apoptosis, 5000 cells were seeded in 96-well plates and treated with Vehicle (DMSO), Peptide A-8R (25 µM), Etoposide (50 µM) (Sigma) at different time points. The Caspase (3/7) activity was measured using Apo-ONE Homogeneous Caspase-3/7 assay kit (Promega). PARP cleavage was also used to measure apoptosis, and is described below.
Figure 5 Peptide A-8R induces apoptosis of prostate cancer cells. (A) LNCaP, (B) PC-3, or (C) Cos cells were treated with Vehicle, Peptide A-8R (10 µM), or Etoposide (20 µM) for 0–24 hrs and subjected to a Caspase assay to measure apoptosis. Bar graphs represent averages of three independent experiments plus standard deviations. All activities are relative to the first condition, and this activity was set to 1. Asterisks indicate statistical significance (P<0.005). (D) LNCaP cells were treated with Vehicle, Peptide C-8R, Peptide A-8R, or Etoposide (each drug at 50 µM) for 8 hrs and monitored for apoptosis by measuring PARP cleavage using Western blotting. Note that β-actin was used to control for protein loading.
Supplementary file pone.0064189.s005.tif: Figure S5 ROS generation is not induced by Peptide A-8R in PC-3 cells and Peptide C-8R in LNCaP cells. (A) PC-3 cells were treated with Vehicle or different concentrations of Peptide A-8R or Peptide C-8R, as shown, or (B) LNCaP cells were treated with Vehicle or different concentrations of Peptide A-8R or Peptide C-8R, or H2O2 and monitored for ROS generation after 0–30 (A) or 30 (B) min. (C) LNCaP cells were treated with Vehicle, Peptide C-8R (10 µM), Peptide A-8R (10 µM), or Etoposide (100 µM) for 0–8 hrs and subjected to a Caspase assay to measure apoptosis. Bar graphs represent averages of three independent experiments plus standard deviations. (C) All activities are relative to the first condition, and this activity was set to either 1. Asterisks indicate statistical significance (P<0.006) of all values compared to Vehicle (B) or to 0 hour (C). (TIF) Click here for additional data file.

[3] = test system: PARP cleavage in LNCaP cells; assay: PARP cleavage by Western blot, LNCaP cells; conditions: 50 µM each drug, 8 hrs, Fig. 5D
Procedure: as §2
Western blotting was performed as described using primary antibodies against sGCα1 (Cayman Chemical), pan-Akt (Cell Signaling Technology), phospho-AKT (S473, T308) (Cell Signaling Technology), phospho-PDK1 (Cell Signaling Technology), phospho-GSK-3β (Cell Signaling Technology), PARP (Cell Signaling Technology), and β-Actin (Abcam).
Figure 5 Peptide A-8R induces apoptosis of prostate cancer cells. (A) LNCaP, (B) PC-3, or (C) Cos cells were treated with Vehicle, Peptide A-8R (10 µM), or Etoposide (20 µM) for 0–24 hrs and subjected to a Caspase assay to measure apoptosis. […] (D) LNCaP cells were treated with Vehicle, Peptide C-8R, Peptide A-8R, or Etoposide (each drug at 50 µM) for 8 hrs and monitored for apoptosis by measuring PARP cleavage using Western blotting. […]

Ac-TFCKAFPFHIIRRRRRRRR [Peptide A-8R]
cGMP levels (sGC): unable to significantly repress cGMP levels, in either the absence or presence of androgen; also recorded: does not interfere with sGCα1-sGCβ1 dimerization and androgen-induced cGMP synthesis | ROS induction ([1]; 0–30 min, fluorescence 490/535 nm, S5B, averages of three independent experiments): significant ROS induction in LNCaP cells within 30 minutes | ROS generation at 50 µM ([1]; 50 µM): decreased with 50 µM; also recorded: minimal ROS induction; also recorded: lowest induction of ROS | ROS generation, concentration dependence ([1]; 10 to 25 µM): rose when Peptide A-8R concentration was increased from 10 to 25 µM | DNA damage (Comet) (DNA damage in C81 cells; 10 µM): induced weakly | DNA damage (Comet) (DNA damage in C81 cells; 25 µM): much more strongly | DNA damage (Comet) (DNA damage in C81 cells; 50 µM): does not elicit a Comet signal | increase in Caspase 3/7 activity ([2]; 1 hour): 2 fold | increase in Caspase 3/7 activity ([2]; 8 hrs): ~4 fold | speed of Caspase 3/7 induction relative to Etoposide [2]: much faster than the well-studied apoptosis-inducing drug Etoposide | Caspase 3/7 activity ([2]; Peptide 10 µM, Etoposide 20 µM, 24 hrs): diminished to Vehicle levels | induction of PARP cleavage [3]: to the same extent as by Etoposide

Reference: PMC3664642, “A Peptide against Soluble Guanylyl Cyclase α1: A New Approach to Treating Prostate Cancer” (PLoS ONE, 2013)
